What was measured:
β-1 adrenergic receptors [1] = target: T1, β-1 adrenergic receptors (Cavia porcellus, UniProt H0W3H1); experiment: Guinea pig atrial strips, atrial force (inotropic response), β-1 agonist activity; format: cell-based; settings: Atrial force (β-1)
T1 construct: conventionally isolated tissue preparations (guinea pig atrial and tracheal strips); from tissue; host or cells: guinea pig atrial strips
Protocol: (§1) The pharmaceutical activity of the present compounds was determined in vitro using conventionally isolated tissue preparations (guinea pig atrial and tracheal strips). […] Both chronotropic (rate) and inotropic (force) responses were thereby assessed. […] The observed effect on tracheal muscle relaxation is equated with and considered to be an indication of bronchodilator activity. The β-1 and β-2 adrenergic receptor designations are those of Lands et al., Nature, 214, page 597 (1967).

β-2 adrenergic receptors = target: T2, β-2 adrenergic receptors (Cavia porcellus, UniProt Q8K4Z4); experiment: Guinea pig tracheal strips, tracheal muscle relaxation, β-2 agonist activity (bronchodilator activity); format: cell-based
T2 construct: conventionally isolated tissue preparations (guinea pig atrial and tracheal strips); from tissue; host or cells: guinea pig tracheal strips
Protocol: as §1

[2] = Blood pressure of a rat after intravenous injection; format: in vivo; settings: injected intravenously
β-1 adrenergic receptors [3] = target: T1, β-1 adrenergic receptors; experiment: Guinea pig atrial strips, atrial rate (chronotropic response), β-1 agonist activity; format: cell-based
Protocol: as §1

T1 sequence (H0W3H1 1-470): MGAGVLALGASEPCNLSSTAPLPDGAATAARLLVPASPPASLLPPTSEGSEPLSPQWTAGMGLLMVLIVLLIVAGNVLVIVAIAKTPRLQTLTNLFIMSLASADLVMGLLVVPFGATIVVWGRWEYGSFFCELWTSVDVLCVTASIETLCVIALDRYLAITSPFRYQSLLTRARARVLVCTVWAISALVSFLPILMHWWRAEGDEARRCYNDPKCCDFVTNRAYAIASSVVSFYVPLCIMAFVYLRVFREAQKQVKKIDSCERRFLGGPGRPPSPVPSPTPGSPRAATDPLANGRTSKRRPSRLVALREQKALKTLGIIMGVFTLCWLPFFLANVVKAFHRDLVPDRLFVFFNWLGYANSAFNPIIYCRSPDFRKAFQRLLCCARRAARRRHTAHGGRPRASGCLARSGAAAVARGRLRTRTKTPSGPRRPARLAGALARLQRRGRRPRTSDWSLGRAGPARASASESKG
T2 sequence (Q8K4Z4 whole entry): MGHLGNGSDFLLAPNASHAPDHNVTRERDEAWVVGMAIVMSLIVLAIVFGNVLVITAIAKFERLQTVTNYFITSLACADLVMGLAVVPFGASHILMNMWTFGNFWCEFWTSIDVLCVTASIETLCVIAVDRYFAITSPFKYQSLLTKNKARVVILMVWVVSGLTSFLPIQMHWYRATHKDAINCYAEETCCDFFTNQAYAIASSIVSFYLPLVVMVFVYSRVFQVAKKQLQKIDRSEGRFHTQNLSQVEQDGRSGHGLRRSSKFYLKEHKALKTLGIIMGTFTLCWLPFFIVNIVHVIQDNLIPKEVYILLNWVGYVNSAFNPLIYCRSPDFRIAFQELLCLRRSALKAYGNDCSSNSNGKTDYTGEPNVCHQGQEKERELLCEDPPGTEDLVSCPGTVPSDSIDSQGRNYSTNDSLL

relative activity (β-1 adrenergic receptors [1]; [ED50 (R,S-ISO)/ED50 (R,S-BENZISO)] × 100): 0.355 | Emax (β-1 adrenergic receptors [1]; maximum response relative to R,S-ISO × 100, mean ± S.E.M.): 33 ± 12% | EC50 (β-1 adrenergic receptors [1]; mean ± S.E.M., n=3, administered as the dihydrochloride, read-out: pD2 (negative logarithm of ED50) (converted)): 3.8 µM | relative activity (β-2 adrenergic receptors; Tracheal relaxation (β-2), [ED50 (R,S-ISO)/ED50 (R,S-BENZISO)] × 100): 4.79 | Emax (β-2 adrenergic receptors; Tracheal relaxation (β-2), maximum response relative to R,S-ISO × 100, mean ± S.E.M.): 58 ± 7% | EC50 (β-2 adrenergic receptors; Tracheal relaxation (β-2), mean ± S.E.M., n=4, administered as the dihydrochloride, read-out: pD2 (negative logarithm of ED50) (converted)): 1.66 µM | bronchodilator activity (β-2) (β-2 adrenergic receptors; in words, from Table I): good bronchodilator activity | Ratio, β-2/β-1 (β-2 adrenergic receptors; relative activity (tracheal relaxation)/relative activity (atrial rate)): 13.5 | relative activity (β-1 adrenergic receptors [3]; Atrial rate (β-1), [ED50 (R,S-ISO)/ED50 (R,S-BENZISO)] × 100): 0.355 | Emax (β-1 adrenergic receptors [3]; Atrial rate (β-1), maximum response relative to R,S-ISO × 100, mean ± S.E.M.): 50 ± 9% | EC50 (β-1 adrenergic receptors [3]; Atrial rate (β-1), mean ± S.E.M., n=5, administered as the dihydrochloride, read-out: pD2 (negative logarithm of ED50) (converted)): 6.17 µM | cardiac stimulation (β-1 force and rate) (β-1 adrenergic receptors [3]; in words, from Table I): cardiac stimulant
Compound: CC(C)NCC(O)c1ccc2nc[nH]c2c1 (racemic) [R, S-BENZISO, R,S-1-(5-benzimidazolyl)-2-isopropylaminoethanol]
bronchodilator selectivity versus isoproterenol (β-2 adrenergic receptors; in words, from the β-2/β-1 ratio): more bronchodilator selective than is isoproterenol | effect on blood pressure [2]: decrease blood pressure

Source: US4204069A, “Reductive alkylation” (Merck & Co., Inc., priority 1978, dated 1980)
